Reference: patent US9695155B2, “Herbicidal substituted pyrimidinyloxy benzene compounds” (E. I. DU PONT DE NEMOURS AND COMPANY, priority 2013, dated 2017)

Experiments:
barnyardgrass [1] = assay: Test A preemergence; format: in vivo, Echinochloa crus-galli
How it was run: (§1)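 Scoring: eye-based comparison with untreated controls, 0 for no effect through 100 for complete control, at about day 10. Treatments: directed soil spray preemergence; foliar spray postemergence on 2–10 cm plants at the one- to two-leaf stage. Medium: loam soil with sand.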

giant foxtail = assay: Test A preemergence; format: in vivo, Setaria faberii
How it was run: as §1

blackgrass = assay: Test C postemergence; format: in vivo, Alopecurus myosuroides; details: for Plant response rating (0 to 100), Blackgrass: 16 g ai/ha, 0 is no effect, 100 is complete control
How it was run: (§2)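 Visual ratings on a 0–100 scale (100 = complete control) were made versus untreated controls after 13–15 greenhouse days. Chemicals in a surfactant-containing non-phytotoxic solvent were applied either preemergence to seeds in loam–sand soil or postemergence to 1- to 4-leaf plants 2–18 cm tall.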

Italian ryegrass = assay: Test C postemergence; format: in vivo, Lolium multiflorum; details: for Plant response rating (0 to 100), Ryegrass, Italian: 16 g ai/ha, 0 is no effect, 100 is complete control
How it was run: as §2

corn = assay: Test C postemergence; format: in vivo, Zea mays; details: for Plant response rating (0 to 100), Corn: 16 g ai/ha, 0 is no effect, 100 is complete control
How it was run: as §2

lambsquarters = assay: Test C postemergence; format: in vivo, Chenopodium album; details: for Plant response rating (0 to 100), Lambsquarters: 16 g ai/ha, 0 is no effect, 100 is complete control
How it was run: as §2

pigweed = assay: Test C postemergence; format: in vivo, Amaranthus retroflexus; details: for Plant response rating (0 to 100), Pigweed: 16 g ai/ha, 0 is no effect, 100 is complete control
How it was run: as §2

barnyardgrass [2] = assay: Test C postemergence; format: in vivo, Echinochloa crus-galli; details: for Plant response rating (0 to 100), Barnyardgrass: 16 g ai/ha, 0 is no effect, 100 is complete control
Source text: (§3) Seeds of plant species selected from blackgrass (Alopecurus myosuroides), Italian ryegrass (Lolium multiflorum), wheat, winter (winter wheat, Triticum aestivum), galium (catchweed bedstraw, Galium aparine), corn (Zea mays), large (Lg) crabgrass (Digitaria sanguinalis), giant foxtail (Setaria faberii), johnsongrass (Sorghum halepense), lambsquarters (Chenopodium album), morningglory (Ipomoea coccinea), yellow nutsedge (Cyperus esculentus), pigweed (Amaranthus retroflexus), ragweed (common ragweed, Ambrosia elatior), soybean (Glycine max), barnyardgrass (Echinochloa crus-galli), oilseed rape (Brassica napus), waterhemp (common waterhemp, Amaranthus rudis), kochia (Kochia scoparia), wild oat (Avena fatua), surinam grass (Brachiaria decumbens), foxtail, green (green foxtail, Setaria viridis), goosegrass (Eleusine indica), bromegrass, downy (downy bromegrass, Bromus tectorum), nightshade (eastern black nightshade, Solanum ptycanthum), cocklebur (common cocklebur, Xanthium strumarium), cupgrass, woolly (woolly cupgrass, Eriochloa villosa), bermudagrass (Cynodon dactylon), sunflower, (common oilseed sunflower, Helianthus annuus), Russian thistle (Salsola kali), and velvetleaf (Abutilon theophrasti) were planted into a blend of loam soil and sand and treated preemergence with test chemicals formulated in a non-phytotoxic solvent mixture which included a surfactant.
(§4) At the same time, plants selected from these crop and weed species and also barley, winter (winter barley, Hordeum vulgare), windgrass (Apera spica-venti), chickweed (common chickweed, Stellaria media), deadnettle (henbit deadnettle, Lamium amplexicaule), and canarygrass (littleseed canarygrass, Phalaris minor) were planted in pots containing Redi-Earth® planting medium (Scotts Company, 14111 Scottslawn Road, Marysville, Ohio 43041) comprising spaghnum peat moss, vermiculite, wetting agent and starter nutrients and treated with postemergence applications of test chemicals formulated in the same manner. Plants ranged in height from 2 to 18 cm (1- to 4-leaf stage) for postemergence treatments. Treated plants and controls were maintained in a greenhouse for 13 to 15 days, after which time all species were compared to controls and visually evaluated. Plant response ratings, summarized in Table C, are based on a scale of 0 to 100 where 0 is no effect and 100 is complete control. A dash (-) response means no test result.

waterhemp = assay: Test C postemergence; format: in vivo, Amaranthus rudis; details: for Plant response rating (0 to 100), Waterhemp: 16 g ai/ha, 0 is no effect, 100 is complete control
Source text: as §3, §4

[3] = 125 g ai/ha, 0 to 100 scale where 0 is no effect and 100 is complete control
[4] = 125 g ai/ha, postemergence, visual rating, scale 0 to 100 (0 no effect, 100 complete control)
[5] = Postemergence, 31 g ai/ha, scale 0 to 100 (0 no effect, 100 complete control), 13 to 15 days
[6] = Postemergence, 62 g ai/ha, scale 0 to 100 (0 no effect, 100 complete control)
[7] = 1000 g ai/ha, 0 to 100 scale, 0 no effect, 100 complete control, approx. 10 days
[8] = 31 g ai/ha, postemergence, visual rating, scale 0 to 100 (0 no effect, 100 complete control), 13 to 15 days

SMILES | Plant response rating (0 to 100), Blackgrass (blackgrass; postemergence) | Plant response rating, Blackgrass (blackgrass; [4]) | Plant response rating, Blackgrass (blackgrass; [6]) | Plant response rating (0 to 100), Ryegrass, Italian (Italian ryegrass; postemergence) | Plant response rating, Ryegrass, Italian (Italian ryegrass; [4]) | Plant response rating, Ryegrass, Italian (Italian ryegrass; [6]) | Plant response rating (0 to 100), Corn (corn; postemergence) | Plant response rating, Corn (corn; [4]) | Plant response rating, Corn (corn; [6]) | Plant response rating (0 to 100), Lambsquarters (lambsquarters; postemergence) | Plant response rating, Lambsquarters (lambsquarters; [4]) | Plant response rating, Lambsquarters (lambsquarters; [6]) | Plant response rating (0 to 100), Pigweed (pigweed; postemergence) | Plant response rating, Pigweed (pigweed; [4]) | Plant response rating, Pigweed (pigweed; [6]) | Plant response rating (0 to 100), Barnyardgrass (barnyardgrass [2]; postemergence) | Plant response rating, Barnyardgrass (barnyardgrass [2]; [4]) | Plant response rating, Barnyardgrass (barnyardgrass [2]; [6]) | Plant response rating (0 to 100), Waterhemp (waterhemp; postemergence) | Plant response rating, Waterhemp (waterhemp; [4]) | also measured
FCc1cccc(Oc2ncc(Br)cn2)c1-n1cc(C(F)(F)F)cn1 [Compound 120] | 0 | 30 | 5 | 0 | 5 | 0 | 5 | 10 | 5 | 55 | 85 | 70 | 40 | 95 | 85 | 5 | 10 | 10 | 75 | 85 | Barnyardgrass plant response rating (0 to 100 scale) (barnyardgrass [1]; 31 g ai/ha): 20; Plant response rating, Barnyardgrass (barnyardgrass [1]; [3]): 70; Foxtail, Giant plant response rating (0 to 100 scale) (giant foxtail; 31 g ai/ha): 50; Plant response rating, Foxtail, Giant (giant foxtail; [3]): 100; Plant response rating, Blackgrass (blackgrass; [5]): 5; Plant response rating, Barnyardgrass (barnyardgrass [2]; [5]): 5; Plant response rating, Waterhemp (waterhemp; [6]): 80
Fc1cccc(Oc2ncc(Cl)cn2)c1-n1cc(C2CC2)nn1 [Compound 155] | 0 | 5 | 5 | 0 | 10 | 10 | 5 | 10 | 5 | 65 | 98 | 98 | 80 | 98 | 98 | 0 | 10 | 5 | 45 | 98 | Barnyardgrass plant response rating (barnyardgrass [1]; [7]): 100; Foxtail, Giant plant response rating (giant foxtail; [7]): 100; Blackgrass plant response rating (blackgrass; [8]): 5; Ryegrass, Italian plant response rating (Italian ryegrass; [8]): 0; Corn plant response rating (corn; [8]): 5; Lambsquarters plant response rating (lambsquarters; [8]): 90; Pigweed plant response rating (pigweed; [8]): 75; Barnyardgrass plant response rating (barnyardgrass [2]; [8]): 5; Waterhemp plant response rating (waterhemp; [8]): 65; Plant response rating, Waterhemp (waterhemp; [6]): 80
